Assay type in all cases: physicochemical
Data set [1] can be described thus: Dissolution kinetics via microscopic analysis (video-microscopy of one individual crystal in water). The note with it: 100-200 μm, fully immersed in 10 μL of water. The protocol: One individual crystal of sodium chloride, Glucose monohydrate, anhydrous Glucose and of (Glucose)2⋅NaCl⋅H2O co-crystal prepared according to the method of Example 3 was tested for its dissolution behavior by microscope. The analysis was performed in analogy to the method described by Quilaqueo et al. (“Dissolution of NaCl crystals in artificial saliva and water by video-microscopy”, Food Research International 69, 2015, p. 373-380).
A digital microscope was used to perform video-microscopy on the co-crystals and their respective individual components. Crystal size in general ranged between 100-200 μm. Images were recorded on a DFC450 digital microscope from Leica Microsystems with a high quality 5 Megapixel CCD sensor. The light intensity and contrast were controlled by using a VH-K20 Variable Illumination. The software used to record and analyze the video images was provided by the supplier of the module Leica LAS MultiTime.
One individual crystal specimen of sufficient quality and crystallinity was fixed on the microscope table using double-face adhesive tape. The crystal was fully immersed in 10 μL of water and the video recorded in parallel. The recording was dissected into individual film stills and the remaining crystalline area was determined until complete dissolution occurred using the respective software.
Applying this methodology, a first order kinetic was used to interpret the result:
Where At is the area (μm^2) of the remaining solid crystal at a time t (in seconds), A0 is the initial area (μm^2) of the crystal, t is the time (s) and k is the constant (s^−1).

Data set [2] is described as follows: Glucose NaCl kinetics of dissolution via refractometry. The note with it: 60 mL of water, stirring, particle size 100-200 μm, average of three experiments. The protocol: The (Glucose)2⋅NaCl⋅H2O co-crystals of Example 3 were tested for their dissolution behavior by refractometry. The equipment used was a RFM300+ refractometer by Bellingham and Stanley. The test samples were added to 60 mL of water, and the dissolution was measured under stirring at 50 rpm using a refractometer with one measurement/second for […]. Every dissolution experiment was performed three times and the average value was calculated. The particle size was 100-200 μm.

Data set [3] can be described thus: Dissolution kinetics via refractometry for the system sucrose/sodium chloride. As to conditions: 60 mL of water, room temperature, constant stirring, particle size 63-100 μm. On the procedure:
Changes in refraction of the solution were measured at room temperature while adding a defined amount of solid material to the solvent (60 mL of water) under constant stirring. The equipment used is composed of a magnetic stirrer and a digital refractive index probe (Fiso technologies) capable of constant measurement. Once the powder is added, refractive indices are recorded as a function of time. This technique was used to compare the dissolution behavior of the sucrose⋅NaCl⋅H2O co-crystal with its pure individual components as well as the physical mixture of the two pure ingredients. The particle size of all solids was standardized to be in between 63-100 μm.
Quantities Used for the Measurements:
Sucrose⋅NaCl⋅H2O co-crystal 2.00 g

For `O.OC[C@H]1O[C@H](O)[C@H](O)[C@@H](O)[C@@H]1O.OC[C@H]1O[C@H](O)[C@H](O)[C@@H](O)[C@@H]1O.[Cl-].[Na+]` [(Glucose)2•NaCl•H2O co-crystal, (α-D-Glucose)2⋅NaCl⋅H2O], the “k, constant of first order dissolution kinetic (crystal area over time)” value (“k, constant … (crystal area over time)” below) in data set [1] turned out to be 0.19 s⁻¹. Besides, in data set [2], the “10% dissolution reached at” value was 6 s, the “50% dissolution reached at” value came to 11 s and the “90% dissolution reached at” value came to 25 s. Moreover, the “90% dissolution reached at” value in data set [2] (listed as (Glucose)2⋅NaCl⋅H2O) was found to be 25 s. The “90% dissolution reached at” value in data set [2] (listed as (Glucose)2⋅NaCl⋅H2O co-crystals) is reported as at most 25 s.
In the case of `OC[C@H]1OC(O)[C@H](O)[C@@H](O)[C@@H]1O` (stereo partly drawn) [Anhydrous Glucose], the “k, constant … (crystal area over time)” value in data set [1] was determined as 0.14 s⁻¹. For the same compound, in data set [2], the “10% dissolution reached at” value is recorded as 6 s, the “50% dissolution reached at” value is 17 s and the “90% dissolution reached at” value came to 289 s.
Turning to `O.OC[C@H]1O[C@H](O)[C@H](O)[C@@H](O)[C@@H]1O` [Glucose monohydrate, alpha-D-(+)-Glucose monohydrate], in data set [1], the “k, constant … (crystal area over time)” value is 0.08 s⁻¹. Further, in data set [2], the “10% dissolution reached at” value was 6 s, the “50% dissolution reached at” value was 51 s and the “90% dissolution reached at” value is given as 214 s.
For `[Cl-].[Na+]` [NaCl, sodium chloride], in data set [1], the “k, constant … (crystal area over time)” value was 0.21 s⁻¹. Further, the “dissolution speed (normalized refractive index versus time, FIG. 7)” value in data set [3] is reported as “dissolves the fastest”. In data set [2], the “10% dissolution reached at” value is given as 4 s, the “50% dissolution reached at” value is reported as 8 s and the “90% dissolution reached at” value is recorded as 29 s.
Regarding `OC[C@H]1O[C@@](CO)(O[C@H]2O[C@H](CO)[C@@H](O)[C@H](O)[C@H]2O)[C@@H](O)[C@@H]1O` [Pure sucrose, (D)-(+)-Sucrose], the “dissolution speed (normalized refractive index versus time, FIG. 7)” value in data set [3] is “dissolves much slower”.
As for `O.O.OCC1OC(OC2(CO)OC(CO)C(O)C2O)C(O)C(O)C1O.[Cl-].[Na+]` (stereo not drawn) [sucrose⋅NaCl⋅H2O co-crystal, Sucrose⋅NaCl⋅2 H2O], the “dissolution speed (normalized refractive index versus time, FIG. 7)” value in data set [3] is given as “dissolved almost as fast”.

These data come from patent publication US20180206529A1, “FAST-DISSOLVING, CO-CRYSTALLINE FORMS OF SODIUM CHLORIDE” (NESTEC S.A., priority 2015, published 2018).
